Measurements from ChEMBL document CHEMBL2434896, “Carbonic anhydrase inhibitors. Synthesis of heterocyclic 4-substituted pyridine-3-sulfonamide derivatives and their inhibition of the human cytosolic isozymes I and II and transmembrane tumor-associated isozymes IX and XII” (Eur J Med Chem, 2013).

Target: Carbonic anhydrase 9 (Homo sapiens, UniProt Q16790)
Assay: Inhibition of human carbonic anhydrase 9 after 15 mins by stopped flow CO2 hydration assay

- Ki: 19.5 nM
SMILES: CCOC(=O)CCc1c(C)nn(-c2ccncc2S(N)(=O)=O)c1C
